Laboratory results: US20110034373A1, “USE OF AN FGF-21 COMPOUND AND A GLP-1 COMPOUND FOR THE TREATMENT OF OBESITY” (ELI LILLY AND COMPANY, priority 2007, published 2011)

B1: FGF-21: FGF-21 compound of Table 1: human FGF-21, printed as 'human FGF-2 (SEQ ID NO: 1)' (protein, listed as Homo sapiens)
chain: MDSDETGFEHSGLWVSVLAGLLGACQAHPIPDSSPLLQFGGQVRQRYLYTDDAQQTEAHLEIREDGTVGGAADQSPESLLQLKALKPGVIQILGVKTSRFLCQRPDGALYGSLHFDPEACSFRELLLEDGYNVYQSEAHGLPLHLPGNKSPHRDPAPRGPARFLPLPGLPPALPEPPGILAPQPPDVGSSDPLSMVGPSQGRSPSYAS

Test system: Diet-induced obese (DIO) male C57/B16 mice
Test: Effect of combination treatment with GLP-1 and FGF-21 on body weight in diet-induced obese mice
Format: in vivo
Conditions: GLP-1 compound 3 nmol/kg/day continuous s.c. infusion (alzet pump), n=8
Procedure: Diet-induced obese (DIO) male C57/B16 mice (Harlan: Va.) maintained on a calorie rich diet (TD95217, Teklad, Madison, Wis.) since weaning are used, DIO is established by ad libitum feeding for at least 7 weeks of a diet consisting of 40% fat, 39% carbohydrate, and 21% protein caloric content (TD95217). Animals are individually housed in a temperature-controlled (24° C.) facility with 12 hour light/dark cycle (lights on 2200) and free access to food (TD95217) and water. After a minimum of 2 weeks acclimation to the facility, the mice are randomized according to their body weight, so each experimental group of animals would have similar body weight.
Body composition of DIO male C57/B16 mice is determined by using QNMR analysis 1 day prior to initiation of treatment. Combination treatment is administered with two delivery methods. A FGF-21 compound (1 mg/kg) is subcutaneously injected once a day and a GLP-1 compound (3 nmol/kg/day) is delivered by continuous subcutaneous infusion with alzet pump. The experimental groups are as follow: One group (“Vehicle”) of mice (n=8) receives PBS (11.4 μL/day) and a daily subcutaneous injection of 0.05 mL/10 g of PBS. Another group (“FGF-21”) of mice (n=8) receives 11.4 μL/day of PBS using the alzet pump and a daily subcutaneous injection of 1 mg/kg of FGF-21. The “GLP-1” group of mice receives 3 nmol/kg/day of a GLP-1 compound through an alzet pump and a daily subcutaneous injection of 0.05 mL/10 g of PBS. The “GLP-1+FGF-21” group of mice receives 3 nmol/kg/day of a GLP-1 compound through an alzet pump and a daily subcutaneous injection of 1 mg/kg of a FGF-21 compound. Injections occur prior to the onset of the dark photoperiod. Starting weight values are measured after implantation of alzet pumps on Day 1. Body weights are recorded in conjunction with daily dosing. Average weight changes compared to starting weights of a particular treatment group, including vehicle, are determined. Average daily weight changes are normalized to average of daily weight change of Vehicle group and are reported in Table 1 (i.e., (Average weight change of Treatment group)−(Average weight change of Vehicle group)). For all treatment groups n=8.
Data in Table 1 represent results where the FGF-21 compound is human FGF-2 (SEQ ID NO: 1) and where the GLP-1 compound is Val^8-Glu^22-Ile^33-Pro^37-Ser^38-Ser^39-Gly^40-Ala^41-Pro^42-Pro^43-Pro^44-Ser^45-GLP-1 (SEQ ID NO: 19).

[1] = Day 1 (starting weight), FGF-21 compound 1 mg/kg s.c. once a day
[2] = Day 5, FGF-21 compound 1 mg/kg s.c. once a day
[3] = Day 10, FGF-21 compound 1 mg/kg s.c. once a day
[4] = Day 15, FGF-21 compound 1 mg/kg s.c. once a day

Molecule | Average Weight Change Normalized to Vehicle Treated Mice [1] | Average Weight Change Normalized to Vehicle Treated Mice [2] | Average Weight Change Normalized to Vehicle Treated Mice [3] | Average Weight Change Normalized to Vehicle Treated Mice [4]
Val^8-Glu^22-Ile^33-Pro^37-Ser^38-Ser^39-Gly^40-Ala^41-Pro^42-Pro^43-Pro^44-Ser^45-GLP-1 (HVEGTFTSDVSSYLEEQAAKEFIAWLIKGGPSSGAPPPS) | 0 g | -1.01 g | -1.99 g | -2.50 g
B1 | 0 g | -0.45 g | -1.94 g | -2.85 g
